Test results taken from patent US3989730A, “Bone-seeking technetium-99m complex” (priority 1973, dated 1976).
Where two headings read alike, the source gives them in different places.

Columns and labels:
[1] = 2 Hrs
[2] = Simultaneous distribution of 99mTc-EHDP and 85Sr in rabbits at 1-24 hours after intravenous injection; type: in vivo, adult New Zealand albino rabbits; settings: for Blood, % Dose in Whole Organ: blood as 7 % of body weight; for Bone(Avg), % dose in whole organ: bone as 10 % of body weight; for Marrow, % Dose in Whole Organ: marrow as 2.2 % of body weight; for Muscle, % Dose in Whole Organ: muscle as 43 % of body weight
Method: Adult New Zealand albino rabbits having an average weight of 3.8 kg were utilized. Strontium-85 was employed as a standard for comparison. […] Each dosage is contained in a volume of 1 ml.
Multiple samples were counted from the tibia, femur, spine and pelvic bones; the total activity in the skeleton was estimated by assuming the whole skeleton consisted of equal proportions by weight of tibia, spine, femur and pelvis and that the skeletal mass was 10% of the body weight. […] The whole liver and both kidneys were weighed and multiple samples from each were counted to measure the total activity in each organ.

[3] = test system: callous of three week-old fractures of tibia; test: Localization in callous of three week-old tibial fractures (rabbits), compared with strontium-85; type: in vivo, albino rabbits
Method: Adult New Zealand albino rabbits having an average weight of 3.8 kg were utilized. Strontium-85 was employed as a standard for comparison. In a typical experiment 20-250 μCi (i.e., containing approximately 1 mg/kg as the free acid of body weight) of 99mTc EHDP were injected intravenously into the rabbits through the marginal ear vein and compared with 10-20 μ Ci 85 Sr chloride administered simutaneously. Each dosage is contained in a volume of 1 ml.
The animals were sacrificed serially from 1 to 24 hours after injection and the activities in major organs were determined by counting multiple samples from each organ in a scintillation well counter (the technetium-99m counts were corrected for the Compton contributions from the strontium-85 activity in the technetium-99m energy window). Multiple samples were counted from the tibia, femur, spine and pelvic bones; the total activity in the skeleton was estimated by assuming the whole skeleton consisted of equal proportions by weight of tibia, spine, femur and pelvis and that the skeletal mass was 10% of the body weight. The red marrow was sampled from the femur and the total marrow was assumed to be 2.2% of the total body weight. Similarly, blood volume was assumed to be 7% and the skeletal muscle 43% of the body weight. The whole liver and both kidneys were weighed and multiple samples from each were counted to measure the total activity in each organ.
In another series of experiments carried out as described above, localization of technetium from its tin-phosphonate complex was determined in the callous of three week-old fractures of tibia in albino rabbits, again in comparison with strontium-85. Comparative radioassay of technetium-99m administered as the pertechnetate was measured in the callous of tibial fractures in rabbits at one and four hours after administration.

[4] = radioactive decay; cited from earlier work

Structure (SMILES): [85Sr+2].[Cl-].[Cl-] [85Sr, reference compound]
- Blood, % Dose in Whole Organ ([1]; AEDP 0.01 mg/kg): 2.99 % Dose
- Kidneys, % Dose in Whole Organ ([1]; AEDP 0.01 mg/kg): 0.329 % Dose
- Liver, % Dose in Whole Organ ([1]; AEDP 0.01 mg/kg): 0.568 % Dose
- Marrow, % Dose in Whole Organ ([1]; AEDP 0.01 mg/kg): 0.465 % Dose
- Urine, % Dose ([1]; AEDP 0.01 mg/kg): 20.97 % Dose
- Blood, % Dose in Whole Organ ([1]; AEDP 0.05 mg/kg): 2.50 % Dose
- Kidneys, % Dose in Whole Organ ([1]; AEDP 0.05 mg/kg): 0.353 % Dose
- Liver, % Dose in Whole Organ ([1]; AEDP 0.05 mg/kg): 0.613 % Dose
- Marrow, % Dose in Whole Organ ([1]; AEDP 0.05 mg/kg): 0.486 % Dose
- Urine, % Dose ([1]; AEDP 0.05 mg/kg): 11.95 % Dose
- Blood, % Dose in Whole Organ ([1]; AEDP 0.1 mg/kg): 2.48 % Dose
- Kidneys, % Dose in Whole Organ ([1]; AEDP 0.1 mg/kg): 0.324 % Dose
- Liver, % Dose in Whole Organ ([1]; AEDP 0.1 mg/kg): 0.654 % Dose
- Marrow, % Dose in Whole Organ ([1]; AEDP 0.1 mg/kg): 0.244 % Dose
- Urine, % Dose ([1]; AEDP 0.1 mg/kg): 12.1 % Dose
- Blood, % Dose in Whole Organ ([1]; AEDP 0.5 mg/kg): 4.36 % Dose
- Kidneys, % Dose in Whole Organ ([1]; AEDP 0.5 mg/kg): 0.384 % Dose
- Liver, % Dose in Whole Organ ([1]; AEDP 0.5 mg/kg): 0.720 % Dose
- Urine, % Dose ([1]; AEDP 0.5 mg/kg): 10.47 % Dose
- Urine, % Dose ([1]; EHDP 0.01 mg/kg): 23.66 % Dose
- Urine, % Dose ([1]; EHDP 0.05 mg/kg): 13.4 % Dose
- Urine, % Dose ([1]; EHDP 0.1 mg/kg): 11.31 % Dose
- Urine, % Dose ([1]; EHDP 0.5 mg/kg): 19.6 % Dose
- Blood, % Dose in Whole Organ ([1]; MDP 0.01 mg/kg): 3.27 % Dose
- Kidneys, % Dose in Whole Organ ([1]; MDP 0.01 mg/kg): 0.34 % Dose
- Liver, % Dose in Whole Organ ([1]; MDP 0.01 mg/kg): 0.65 % Dose
- Marrow, % Dose in Whole Organ ([1]; MDP 0.01 mg/kg): 0.53 % Dose
- Muscle, % Dose in Whole Organ ([1]; MDP 0.01 mg/kg): 5.69 % Dose
- One Femur, % Dose in Whole Organ ([1]; MDP 0.01 mg/kg): 3.46 % Dose
- Urine, % Dose ([1]; MDP 0.01 mg/kg): 10.3 % Dose
- Blood, % Dose in Whole Organ ([1]; MDP 0.05 mg/kg): 3.66 % Dose
- Kidneys, % Dose in Whole Organ ([1]; MDP 0.05 mg/kg): 0.46 % Dose
- Liver, % Dose in Whole Organ ([1]; MDP 0.05 mg/kg): 0.71 % Dose
- Marrow, % Dose in Whole Organ ([1]; MDP 0.05 mg/kg): 0.53 % Dose
- Muscle, % Dose in Whole Organ ([1]; MDP 0.05 mg/kg): 5.89 % Dose
- One Femur, % Dose in Whole Organ ([1]; MDP 0.05 mg/kg): 2.53 % Dose
- Urine, % Dose ([1]; MDP 0.05 mg/kg): 23.16 % Dose
- Blood, % Dose in Whole Organ ([1]; MDP 0.1 mg/kg): 3.95 % Dose
- Kidneys, % Dose in Whole Organ ([1]; MDP 0.1 mg/kg): 0.66 % Dose
- Liver, % Dose in Whole Organ ([1]; MDP 0.1 mg/kg): 1.05 % Dose
- Marrow, % Dose in Whole Organ ([1]; MDP 0.1 mg/kg): 0.57 % Dose
- Muscle, % Dose in Whole Organ ([1]; MDP 0.1 mg/kg): 9.32 % Dose
- One Femur, % Dose in Whole Organ ([1]; MDP 0.1 mg/kg): 2.80 % Dose
- Urine, % Dose ([1]; MDP 0.1 mg/kg): 15.4 % Dose
- Blood, % Dose in Whole Organ ([1]; MDP 0.5 mg/kg): 3.11 % Dose
- Kidneys, % Dose in Whole Organ ([1]; MDP 0.5 mg/kg): 0.45 % Dose
- Liver, % Dose in Whole Organ ([1]; MDP 0.5 mg/kg): 0.69 % Dose
- Marrow, % Dose in Whole Organ ([1]; MDP 0.5 mg/kg): 0.67 % Dose
- Muscle, % Dose in Whole Organ ([1]; MDP 0.5 mg/kg): 5.65 % Dose
- One Femur, % Dose in Whole Organ ([1]; MDP 0.5 mg/kg): 2.96 % Dose
- Urine, % Dose ([1]; MDP 0.5 mg/kg): 15.16 % Dose
- Bone(Avg), % dose / 1 % body weight ([2]; 1 Hr): 5.60 % dose / 1 % body weight
- Femur, % dose / 1 % body weight ([2]; 1 Hr): 4.90 % dose / 1 % body weight
- Kidneys, % Dose in Whole Organ ([2]; 1 Hr): 0.80 % dose
- Pelvis, % dose / 1 % body weight ([2]; 1 Hr): 7.07 % dose / 1 % body weight
- Spine, % dose / 1 % body weight ([2]; 1 Hr): 7.03 % dose / 1 % body weight
- Tibia, % dose / 1 % body weight ([2]; 1 Hr): 3.62 % dose / 1 % body weight
- Urine, % Dose ([2]; 1 Hr): 6.96 % dose
- Blood, % Dose in Whole Organ ([2]; 1 Hr): 11.9 % dose
- Bone(Avg), % dose in whole organ ([2]; 1 Hr): 56.0 % dose
- Marrow, % Dose in Whole Organ ([2]; 1 Hr): 0.91 % dose
- Muscle, % Dose in Whole Organ ([2]; 1 Hr): 13.4 % dose
- Bone(Avg), % dose / 1 % body weight ([2]; 2 Hrs): 6.44 % dose / 1 % body weight
- Femur, % dose / 1 % body weight ([2]; 2 Hrs): 5.74 % dose / 1 % body weight
- Kidneys, % Dose in Whole Organ ([2]; 2 Hrs): 0.64 % dose
- Pelvis, % dose / 1 % body weight ([2]; 2 Hrs): 7.70 % dose / 1 % body weight
- Spine, % dose / 1 % body weight ([2]; 2 Hrs): 7.59 % dose / 1 % body weight
- Tibia, % dose / 1 % body weight ([2]; 2 Hrs): 4.73 % dose / 1 % body weight
- Urine, % Dose ([2]; 2 Hrs): 18.0 % dose
- Blood, % Dose in Whole Organ ([2]; 2 Hrs): 7.08 % dose
- Bone(Avg), % dose in whole organ ([2]; 2 Hrs): 49.4 % dose
- Marrow, % Dose in Whole Organ ([2]; 2 Hrs): 0.76 % dose
- Muscle, % Dose in Whole Organ ([2]; 2 Hrs): 8.8 % dose
- Bone(Avg), % dose / 1 % body weight ([2]; 4 Hrs): 6.81 % dose / 1 % body weight
- Femur, % dose / 1 % body weight ([2]; 4 Hrs): 6.17 % dose / 1 % body weight
- Kidneys, % Dose in Whole Organ ([2]; 4 Hrs): 0.34 % dose
- Pelvis, % dose / 1 % body weight ([2]; 4 Hrs): 8.02 % dose / 1 % body weight
- Spine, % dose / 1 % body weight ([2]; 4 Hrs): 7.82 % dose / 1 % body weight
- Tibia, % dose / 1 % body weight ([2]; 4 Hrs): 5.13 % dose / 1 % body weight
- Urine, % Dose ([2]; 4 Hrs): 22.7 % dose
- Blood, % Dose in Whole Organ ([2]; 4 Hrs): 3.85 % dose
- Bone(Avg), % dose in whole organ ([2]; 4 Hrs): 68.1 % dose
- Marrow, % Dose in Whole Organ ([2]; 4 Hrs): 0.50 % dose
- Muscle, % Dose in Whole Organ ([2]; 4 Hrs): 6.46 % dose
- Bone(Avg), % dose / 1 % body weight ([2]; 24 Hrs): 5.21 % dose / 1 % body weight
- Femur, % dose / 1 % body weight ([2]; 24 Hrs): 4.83 % dose / 1 % body weight
- Kidneys, % Dose in Whole Organ ([2]; 24 Hrs): 0.03 % dose
- Marrow, % dose / 1 % body weight ([2]; 24 Hrs): 0.05 % dose / 1 % body weight
- Pelvis, % dose / 1 % body weight ([2]; 24 Hrs): 5.26 % dose / 1 % body weight
- Spine, % dose / 1 % body weight ([2]; 24 Hrs): 6.47 % dose / 1 % body weight
- Tibia, % dose / 1 % body weight ([2]; 24 Hrs): 4.27 % dose / 1 % body weight
- Blood, % Dose in Whole Organ ([2]; 24 Hrs): 0.29 % dose
- Bone(Avg), % dose in whole organ ([2]; 24 Hrs): 51.9 % dose
- Marrow, % Dose in Whole Organ ([2]; 24 Hrs): 0.10 % dose
- Muscle, % Dose in Whole Organ ([2]; 24 Hrs): 1.00 % dose
- Callus, % dose / 1 % body weight ([3]; 1 Hr): 31.2 % dose / 1 % body weight
- Callus, % dose / 1 % body weight ([3]; 4 Hrs): 37.7 % dose / 1 % body weight
- half-life of radionuclide [4]: 65 days
